Experimental findings from patent publication US20230416245A1, “ADENOSINE ANALOGS FOR THE TREATMENT OF DISEASE” (BIOINTERVENE, INC., priority 2020, published 2023) are described below.

SMILES strings stand for the structures. pKi: −log10 of the molar value. Some results are limits rather than exact numbers.

human adenosine A3 receptor, sequence (P0DMS8 whole entry): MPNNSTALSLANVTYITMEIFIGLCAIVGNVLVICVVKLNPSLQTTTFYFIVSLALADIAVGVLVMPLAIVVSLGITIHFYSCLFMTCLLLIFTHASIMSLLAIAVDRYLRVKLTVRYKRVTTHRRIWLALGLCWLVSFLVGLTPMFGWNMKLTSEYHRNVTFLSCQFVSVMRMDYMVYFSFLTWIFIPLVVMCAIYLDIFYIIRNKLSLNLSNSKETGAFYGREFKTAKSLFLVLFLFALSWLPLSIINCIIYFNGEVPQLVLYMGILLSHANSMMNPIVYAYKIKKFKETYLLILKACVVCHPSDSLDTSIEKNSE

The assay concerns the target human adenosine A3 receptor (Homo sapiens (Human), UniProt P0DMS8). The experiment in a line: Adenosine receptor binding assay ([125I]-AB-MECA competition). As to conditions: inhibition of 0.15 nM [125I]-AB-MECA binding, membranes of cells expressing human A3 receptor; read-out: hA3 Ki: Ki. Put shortly: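 Competition against 0.15 nM [125I]-AB-MECA was run for 120 min at room temperature on 20 μg human A3-transfected cell membranes in 50 mM Tris pH 7.4, with or without 10 mM MgCl2. Bound label was counted after filtration. Ki was derived by Cheng-Prusoff from Hill-fitted IC50 values.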
Usually pKi stands for the negative decadic logarithm of the Ki, by convention in mol/L. As for `Cc1c(Cl)nc2c(ncn2[C@H]2[C@H](O)[C@H](O)[C@@H]3C[C@@H]32)c1NCC(F)F` [Compound 60, (1R,2R,3S,4R,5S)-4-(5-chloro-7-((2,2-difluoroethyl)amino)-6-methyl-3H-imidazo[4,5-b]pyridin-3-yl)bicyclo[3.1.0]hexane-2,3-diol], the pKi is under 5.03. Take `O[C@@H]1[C@H](O)[C@@H]2C[C@@H]2[C@H]1n1cnc2c(NCC(F)F)nc(Cl)nc21` [Compound 35, (1R,2R,3S,4R,5S)-4-(2-chloro-6-((2,2-difluoroethyl)amino)-9H-purin-9-yl)bicyclo[3.1.0]hexane-2,3-diol]: the negative logarithm of the Ki (pKi) is 8.77. Take `O[C@@H]1[C@H](O)[C@@H]2C[C@@H]2[C@H]1n1cnc2c(NCC(F)F)cc(Cl)nc21` [Compound 40, (1R,2R,3S,4R,5S)-4-(5-chloro-7-((2,2-difluoroethyl)amino)-3H-imidazo[4,5-b]pyridin-3-yl)bicyclo[3.1.0]hexane-2,3-diol]: the negative logarithm of the Ki (pKi) was 8.70. With `CCNc1cc(C#CC2CC2)nc2c1ncn2[C@H]1[C@H](O)[C@H](O)[C@@H]2C[C@@H]21` [Compound 46, (1R,2R,3S,4R,5S)-4-(5-(cyclopropylethynyl)-7-(ethylamino)-3H-imidazo[4,5-b]pyridin-3-yl)bicyclo[3.1.0]hexane-2,3-diol] the figure was 7.67.
